Data: PubChem BioAssay AID179 (DTP/NCI, 2004)
Calls of active or inactive are those of the source.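 The calls were made as follows: active = compounds giving half or more protection of infected cells from virus-caused growth loss, again on retest; inactive = the rest.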

Test system: CEM cells HIV-1 protection, formazan growth assay
Experiment: NCI AIDS Antiviral Assay
Conditions: for IC50: measured here: growth of uninfected CEM cells
Procedure, shortened: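 Protection of CEM cells against HIV-1 measured as cell growth via soluble formazan read-out, with five concentrations tested on both infected and uninfected cells; failure to protect may reflect toxicity.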

SMILES | outcome | EC50 [µM] | IC50 [µM]
CC1OC(OC2C(CO)OC(O[C@H]3CC[C@@]4(C)C(=CC[C@H]5[C@@H]6C[C@@H]7O[C@@]8(CC[C@H](C)CN8)[C@@H](C)[C@@H]7[C@@]6(C)CC[C@@H]54)C3)C(OC3OC(C)C(O)C(O)C3O)C2O)C(O)C(O)C1O (stereo partly drawn) | inactive | – | –
c1n[nH]cc1C12C3C4C5C3C1C5C42 (stereo not drawn) | – | > 200 | 120
CNc1ccccc1S(=O)(=O)c1ccccc1C(F)(F)F | – | > 200 | 17
COC(=N)C12C(N)=NC(OC)(OC)C1(C#N)C21C(=O)N(c2ccccc2)N=C1C (stereo not drawn) | – | > 200 | 97.7
Cc1ccc(NC(=O)c2cc(S(=O)(=O)n3cc[nH]c3=O)c(S)cc2Cl)cc1 | – | > 200 | > 200
Cc1cc(S(=O)(=O)Nc2nc(Nc3ccccc3)nn2C)c(S)cc1Cl | – | > 200 | 166
CN1C(=O)c2ccccc2OC12C=Cc1c(ccc3ccccc13)O2 (stereo not drawn) | – | > 195 | 14.1
CS(=O)(=O)CS(C)(=O)=O | – | > 200 | > 200
O=C1c2ccccc2-n2c1nc1ccccc1c2=O | – | > 200 | 52.5
O=P1(c2ccccc2)Nc2ccccc2N1c1ccccc1 (stereo not drawn) | – | > 200 | 38
CC(C)(C)OC(=O)N[C@H]1CC2(C=C(Cl)C(=O)C(Cl)=C2)OC1=O | inactive | – | –
O=C1C=C(O)C(=Cc2c(O)cc(O)cc2O)C(O)=C1 | inactive | – | –
O=C(NC1=C(Cl)C(=O)c2ccccc2C1=O)C(=O)c1c(O)c2ccccc2oc1=O | – | > 117 | > 117
COC(=O)C(Cc1ccc(Oc2cc(CC(NC(=O)c3ccccc3)C(=O)OC)ccc2OC)cc1)NC(=O)c1ccccc1 (stereo not drawn) | – | > 200 | 16.6
Cc1ccc(-c2csc(=Nc3c(C)n(C)n(-c4ccccc4)c3=O)n2CCO)cc1 | – | > 200 | 79.4
O=C(CC/C=C(/CS(=O)(=O)c1ccccc1)S(=O)(=O)c1ccccc1)c1ccccc1 | – | > 100 | > 100
O=C(CCCN1CCC2(CC1)CC(c1ccccc1)OC2=O)c1ccc(F)cc1 (stereo not drawn) | – | > 200 | 89.1
CN(C)c1ccc(-c2c(C#N)c(S)n(NS(=O)(=O)c3ccccc3)c(=O)c2C#N)cc1 | – | > 200 | 8.32
C/C(O)=C(\C=NC(=S)c1cccnc1)C(=O)Nc1ccccc1C | – | > 200 | > 200
COc1cc(C2C(O)N(C)C(=O)C23CCCN3C)c(Br)cc1Br (stereo not drawn) | inactive | – | –
CCOC(=O)/C=C1\C[C@H](NC(=O)OCc2ccccc2)C(=O)N1CC(=O)OCC | – | > 200 | > 200
c1csc(-c2csc(-c3cccs3)c2)c1 | – | > 200 | 40.7

SMILES | outcome | EC50 [µM] | IC50 [µM]
Cn1cc(NC(=O)c2cc(NC(=O)CCCCCCC(=O)Nc3cc(C(=O)Nc4cc(C(=O)NCCC(=N)N)n(C)c4)n(C)c3)cn2C)cc1C(=O)NCCC(=N)N | – | > 204 | 35.5
Oc1[nH]c2ccccc2c1N=NC(=S)NCc1ccccn1 | – | > 2 | 0.0295
CC(=O)NNc1nc(C)c(C(=O)/C=C/c2ccc(/C=C/C(=O)c3sc(NNC(C)=O)nc3C)cc2)s1 | – | > 49 | > 49
O=S(=O)(SSS(=O)(=O)c1ccc(Cl)cc1)c1ccc(Cl)cc1 | – | > 63.1 | > 63.1
Oc1ccccc1C=Nc1ccccc1SSc1ccccc1N=Cc1ccccc1O | – | > 200 | 8.13
CCOC(=O)C1=C(NC)OCC1=O | inactive | – | –
Cc1cc2c(=O)cc(-c3ccc(Cl)c(Cl)c3)oc2c(C(=O)O)c1C | inactive | – | –
NC(N)=NS(N)(=O)=O | – | > 200 | > 200
CC(NC(=O)C(N)CC(=O)O)NC(=O)C1CCC1 (stereo not drawn) | – | > 200 | > 200
CC(C)=CCc1cc(C2CC(=O)c3c(O)cc(O)cc3O2)cc(CC=C(C)C)c1O (stereo not drawn) | inactive | – | –
CC1(C)COC2(C)N(c3ccccc3)C(=O)ON12 (stereo not drawn) | – | > 200 | > 200
CC1(C)CC(=O)C(C(CC(c2ccccc2)c2cc3c(cc2O)OCO3)C2=C(O)CC(C)(C)CC2=O)=C(O)C1 (stereo not drawn) | – | > 200 | 112
CCOc1ccc2nc(NC(=O)/C(CC(=O)CC(C3=C(O)c4ccccc4CC3=O)c3ccccc3)=N\O)sc2c1 (stereo not drawn) | – | > 4.79 | > 4.79
CC(C)=CCc1c(-c2ccc(O)cc2O)oc2c3c(cc(O)c2c1=O)OC(C)(C)C=C3 | – | > 17.4 | 13.8
N#Cc1nc(C(CO)N(Cc2ccccc2)C(=O)O)oc1N (stereo not drawn) | – | > 200 | > 200
Nc1nc[n+](Cc2ccccc2CCO)c2nc[nH]c12 | – | > 37.2 | > 37.2
O=C1CCCc2sccc21 | – | > 200 | > 200
C=C(c1cc(Br)c(OC)c(C(=O)OC)c1)c1cc(Br)c(OC)c(C(=O)OC)c1 | – | > 100 | > 100
O=C1/C(=C/c2ccco2)NC(=S)N1CN1CCOCC1 | – | > 200 | 91.2
Cc1cc([N+](=O)[O-])c(C)c2c1[nH]c1ccc(Cl)cc12 | – | > 10 | > 10
Cc1ccc(C2=Nc3cc(C)c(Cl)cc3S(=O)(=O)NN2)cc1 | – | 34.7 | 87.1
CC1=NOC2(C1)C(=O)Nc1ccccc12 (stereo not drawn) | – | > 200 | 141

SMILES | outcome | EC50 [µM] | IC50 [µM]
O=CC(O)C(O)C(O)C(O)COC(=O)NCCCCC(=O)C(F)(F)C(F)(F)C(F)(F)C(F)(F)C(F)(F)C(F)(F)C(F)(F)F (stereo not drawn) | – | > 200 | 24
C=C(C)CCNCC/C=C\[Si](C)(C)C | – | > 1170 | > 1170
CCOC(=O)/C(=C/c1ccc[nH]1)P(=O)(OCC)OCC | – | > 437 | > 437
C=C1C(=O)O[C@@H]2CC(C)C3C(OC(C)=O)CC(OC(C)=O)[C@@]3(C)C[C@H]12 (stereo partly drawn) | – | > 102 | 5.37
COc1ccc2c(c1)c1c3c(ccc4ncn2c43)N(CCN(C)C)CCN=1 | – | > 20 | 0.324
FC(F)(F)c1cccc(N2NC(=S)N3C=CC=CC32)c1 (stereo not drawn) | – | > 83.2 | > 83.2
O=C1C=C(Nc2ccc(S(=O)(=O)Nc3ncccn3)cc2)c2ccccc2C1=O | – | > 447 | 67.6
N#Cc1cc2cccn2c2c1cnn2-c1ccccc1 | – | > 200 | 43.7
Cc1oncc1NC1=CC(=O)C(=O)c2ccccc21 | – | > 200 | 8.51
CCOC(=O)C1N(S(=O)(=O)c2ccc(C)cc2)CCC12c1ccccc1N(C(C)=O)C2C(/C=C/C(=O)OC)=C/C(=O)OC (stereo not drawn) | inactive | – | –
Clc1ccccc1C[P+](c1ccccc1)(c1ccccc1)c1ccccc1 | – | > 200 | 4.57
CN(C)c1nc(Oc2nc(N(C)C)nc(N(C)C)n2)nc(N(C)C)n1 | – | > 724 | 17.4
NS(=O)(=O)c1cc2c(cc1Cl)NC=NS2(=O)=O | – | > 851 | > 851
Cc1nc(N)nc2c1CCC(=O)N2 | – | > 56.2 | > 56.2
O=c1ccn2n1CCCCC2 | – | > 200 | > 200
CN=C1CC2c3cc(OC)c(OC)cc3CCN2C2=C1C(=O)CC(C)(C)C2 (stereo not drawn) | – | > 200 | > 200
Nc1nc(=S)ss1 | – | > 200 | 155
Cc1cc(Br)ccc1N=Nc1c(C)noc1-c1ccccc1 | inactive | – | –
Cc1ccccc1SSc1ccccc1C | inactive | – | –
CCOC(=O)c1cn2c3c(cccc3c1=O)CC2 | – | > 132 | > 132
CC[C@@H](C)C(=O)O[C@@H]1CC[C@]2(CO2)C2(COC(C)=O)C(OC(C)=O)CC(C)[C@](C)(C[C@H](O)C3=CC(=O)OC3)[C@@H]12 (stereo partly drawn) | inactive | – | –
Cn1cc(NC(=O)c2cc(NC(=O)[C@H]3CCC(N)=N3)c[nH]2)cc1C(=O)NCCC(=N)N | active | – | –

SMILES | outcome | EC50 [µM] | IC50 [µM]
COc1ccc(/C=C(\C#N)c2ccccc2)cc1 | – | > 8.51 | 6.31
Cc1ccccc1N=Nc1c(S(=O)(=O)O)cc2cc(NC(=O)Nc3ccc4c(O)c(N=Nc5ccc6cc(S(=O)(=O)O)ccc6c5)c(S(=O)(=O)O)cc4c3)ccc2c1O | active | – | –
C#CCCCCC#Cc1ccccc1C(=O)C=[N+]=[N-] | – | > 110 | 91.2
CCOC(=O)/C(C#N)=C(N)/C(=N\Nc1cccc(C(F)(F)F)c1)C(=O)OCC | inactive | – | –
O=C1CCCC/C1=C\c1ccc(Cl)c(Cl)c1 | inactive | – | –
CC(=O)NNc1nc(C)c(C(=O)/C=C/c2ccc(N(C)C)cc2)s1 | – | > 55 | > 55
COc1ccc(C2C(Cl)C(=O)N2NC(=O)c2ccc(NC(C)=O)cc2)cc1OC (stereo not drawn) | – | > 200 | > 200
C=C(COC(=O)CC1(CC(=O)O)CCCC1)[C@@H]1CC[C@]2(COC(=O)CC3(CC(=O)O)CCCC3)CC[C@]3(C)[C@H](CC[C@@H]4[C@@]5(C)CC[C@H](OC(=O)CC6(CC(=O)O)CCCC6)C(C)(C)[C@@H]5CC[C@]43C)[C@@H]12 | – | > 200 | 8.71
Cc1ccc(C(=O)OC(C)C)cc1N=NN(C)C | – | > 55 | > 55
CCOC(=O)C1(c2ccccc2)CCCNCC1 (stereo not drawn) | – | > 112 | > 112
Cc1c(/C=N/NC(=S)Nc2cccc(Cl)c2)c(=O)n(-c2ccccc2)n1C | – | > 200 | > 200
CCOC(=O)C1=C(C)N(NC(N)=O)C2(N)N(NC(N)=O)C(C)=C(C(=O)OCC)C12C#N (stereo not drawn) | – | > 575 | 427
C[C@]12CNC(=O)C=C1CC[C@@H]1C2CC[C@]2(C)NC(=O)CCC12 (stereo partly drawn) | inactive | – | –
C/C1=C2\CC(OC3OCC(O)C(O)C3O)C(C)C2C/C=C(/C=O)[C@H]2C[C@@]3(C)CCC(C(C)C)C3CC12 (stereo partly drawn) | – | > 93.3 | > 93.3
COC1=CC=C2Nc3nc(N)[nH]c(=O)c3SC2N1 (stereo not drawn) | – | > 178 | > 178
CCCCC(C)CCCC1=C(O)/C(=C/C(=O)O)OC1=O (stereo not drawn) | – | 174 | 447
N#CC1=C(N)Oc2cc(O)cc(O)c2C1c1ccccc1 (stereo not drawn) | – | > 200 | > 100
CCOC(=O)Nc1ccc2nc(N3CCCCC3)sc2c1 | – | > 85.1 | 6.31
O=C(CC(=O)Nc1cccc(Cl)c1)NNCC(=O)Nc1nnc(-c2ccccc2)s1 | – | > 22.4 | > 22.4
O=C(O)CCC1COc2ccccc2O1 (stereo not drawn) | – | > 200 | > 200
C=CCc1cc2c(cc1COCOCCOCCOCCCC)OCO2 | – | > 200 | 44.7
